The values below come from US8916604B2, “Compositions and methods for epigenetic modification of nucleic acid sequences” (Rutgers, The State University of New Jersey, priority 2011, dated 2014).

Data set [1] can be described thus: Overall health and toxicity of TRAMP mice on DIM diet. In kind it is in vivo. Here is the method:
(§1) DIM was obtained from Sigma-Aldrich (St. Louis, Mo., U.S.A.). MN-76A diets containing 1% DIM were prepared by Research Diets Inc. (New Brunswick, N.J., U.S.A.) and stored at −20° C. The dose was chosen based in part on studies reported previously Anderton et al., Drug Metab Dispos. 2004; 32: 632-8; and Xue et al., J Nutr Biochem. 2008; 19: 336-44). In our present study, 1% DIM was well-tolerated with these TRAMP mice. The control TRAMP males (n=19) received A1N-76A diets throughout the experiment while the treated TRAMP males received 1% DIM diet starting from eight weeks of age (n=9) as Group 1 (D-G1) and Group 2 (D-G2) starting from twelve weeks of age (n=8) (FIG. 12A). Fresh diets were added to the cages twice weekly.
(§2) TRAMP males were weighed weekly and the overall health of the animals was monitored on a regular basis. All mice were sacrificed at the age of 24 weeks by carbon dioxide euthanasia and the genitourinary apparatus (GU) consisting of the seminal vesicles, prostate, and bladder were isolated for further analyses (FIG. 12B).
The overall health of all the mice was monitored during the study period and found to be in good health. All mice were weighed and checked weekly during the course of this study.

Data set [2] relates to first five CpGs of the Nrf2 gene promoter. Description: Bisulfite genomic sequencing of TRAMP prostate tissues. In kind it is in vivo, mouse. The conditions noted are these: control 98% methylation. Here is the method: Genomic DNA was isolated from the control or DIM treated TRAMP C1 cells and TRAMP dorso-lateral prostate tissues collected from control and DIM treated groups pooled and homogenized using the DNeasy tissue kit (Qiagen, Valencia, Calif., U.S.A.). The genomic DNAs were extracted and subjected to bisulfite conversion carried out using 750 ng of genomic DNA and applying to EZ DNA Methylation Gold Kits (Zymo Research Corp., Orange, Calif., U.S.A.) following the manufacturer's instructions. The converted DNA was amplified by PCR utilizing Platinum PCR SuperMix (Invitrogen, Grand Island, N.Y., U.S.A.) with a set of specific primers, forward: 5′-AGTTATGAAGTAGTAGTAAAAA-3′ (SEQ ID NO: 37) and reverse: 5′-AATATAATCTCATAAAACCCCAC-3 (SEQ ID NO: 38), amplifying the first five CpGs located between −1266 and −1086 of the promoter region of Nrf2 with the translation initiation site defined as +1 (14, 20). Gel extraction using Qiaquick™ gel extraction kit (Qiagen, Valencia, Calif., U.S.A.) were used to purify the PCR products, then cloned into pCR4 TOPO vector using a TOPO™ TA Cloning kit (Invitrogen, Grand Island, N.Y., U.S.A.), Plasmids DNA from at least twenty colonies per for treatment were prepared using QIAprep Spin Miniprep Kit (Qiagen, Valencia Calif., U.S.A.) and sequenced (Genwiz, Piscataway, N.J., U.S.A.).

A further data set deals with TRAMP mice. Nature of the data set: DIM-supplemented diet, prostate tumorigenesis in TRAMP males. In kind it is in vivo, mouse. The note with it: for Incidence of palpable tumor: sacrificed at 24 weeks, control 6/19; for Incidence of lymph nodes metastasis: control 5/19; for histological incidence of HG-PIN: control 54%. The procedure: Female hemizygous C57BL/TGN TRAMP mice, line PB Tag 8247NG, and male C57BL/6 mice were purchased from The Jackson Laboratory (Bar Harbor, Me., U.S.A.). The animals were bred on the same genetic background C57BL/6 and maintained in the Laboratory Animal Service facility at Rutgers University. Housing and care of the animals was performed in accordance with the guidelines established by the University's Animal Research Committee consistent with the NIH Guidelines for the Care and Use of Laboratory Animals, Transgenic males for the studies were obtained as [TRAMP×C57BL/6] F1 or [TRAMP×C57BL/6] […] Throughout the experiment the animals were housed in a temperature-control led room (68-72° F.) with a 12 h light dark cycle, at a relative humidity of 45% to 55%.
as §1, §2
The dorso-lateral prostate (n=5) was excised and fixed in 10% formalin for 24 b and then transferred to 70% ethanol for 24 h. After dehydration processing, and embedding with paraffin, tissue sections ([…]) were cut from paraffin embedded prostate tissue and mounted on slides. The sections were stained with Hematoxylin and Eosin (H&E) to examine any neoplastic changes. Sections were evaluated by a histopathologist in a blinded fashion to classify prostatic intra-epithelial neoplasia (PIN) lesion, as we have reported previously (8, 12, 13, 30), Lesions were classified as PIN I, PIN II, PIN III, and PIN IV (Park et al., Am J Pathol. 2002; 161: 727-35). For ease of classification, PIN I and PIN II were combined as low grade PIN (LG-PIN) while PIN III and PIN IV were combined as high grade PIN (HG-PIN) as we have performed previously (8, 12, 30, 31).

The mark [3] stands for this setting: D-G2: 1% DIM diet from 12 weeks of age, p<0.05.

In the case of `c1ccc2c(Cc3c[nH]c4ccccc34)c[nH]c2c1` [DIM, 3,3′-diindolylmethane], the “weights of liver, kidney and spleen” value in data set [1] (1% DIM diet, at sacrifice) was “no significant change”. Moreover, the body weights entry in data set [1] (1% DIM diet, throughout the study period) was “No significant change”. The signs of toxicity entry in data set [1] (mouse, in vivo) is listed as “no specific observable sign of toxicity”. For the same compound, in data set [1] (mouse, in vivo), the tolerability result is “well-tolerated”. Moreover, the results for the “methylation of the first five CpGs of Nrf2 promoter” value in data set [2] (D-G1) and in data set [2] (D-G2) were 37.6% and 54.4%, respectively. Moreover, the “Incidence of palpable tumor” value was 1/9^a, in the data set with TRAMP mice (D-G1: 1% DIM diet from 8 weeks of age) and 0/8^a, * in the data set on TRAMP mice (setting [3]). Moreover, the “Incidence of lymph nodes metastasis” value with TRAMP mice (D-G1: 1% DIM diet from 8 weeks of age, p<0.05) is 0/9^b, #; in the data set on TRAMP mice (setting [3]), 0/8^b, #. For the same compound, the “histological incidence of carcinoma” value is given as 20% with TRAMP mice (D-G1, control 46%) and “no carcinoma” with TRAMP mice (D-G2). Also, the “histological incidence of HG-PIN” value in the data set on TRAMP mice (D-G1) is on record as 20%; with TRAMP mice (D-G2), 80%. The “wet genitourinary apparatus (GU) weight” value with TRAMP mice (D-G1 and D-G2 vs non-treated control, p<0.05) is listed as “statistically significant decrease”. In the data set on TRAMP mice (D-G2), the “histological incidence of LG-PIN” value is on record as 20%. Also, in the data set with TRAMP mice (DIM-treated mice overall vs 26.3% in control), the “incidence of lymph node metastasis” value came out at 0%. Also, the “percentage of palpable tumor” value with TRAMP mice (DIM-treated mice overall vs 31.6% in control) came out at 5.8%.
